Where a name gives a salt, the structure may show the parent alone.
Experiments:
[1] = molecular target: Syk (356-635 amino acids) catalytic domain (Homo sapiens (Human), UniProt P43405); test: Inhibition of enzymatic Syk kinase activity (radiometric); type: biochemical; conditions: read-out: IC50 Syk
Procedure, shortened: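 Radiometric filter-binding format: 32P transfer from γ-32P-ATP onto pG4T, scintillation-counted after acid washes of P81 paper. Syk kinase domain (356-635), 0.035–7.5 ng per reaction, was exposed to compound for 30 minutes at room temperature before a 10-minute, 30° C. reaction with ATP (100 μM stock). Inhibition derived from counts with versus without compound.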

[2] = molecular target: JAK2 (Homo sapiens (Human), UniProt O60674); test: Inhibition of enzymatic JAK2 kinase activity (TR-FRET); type: biochemical; conditions: read-out: IC50 JAK
JAK2, sequence (O60674 808-1132): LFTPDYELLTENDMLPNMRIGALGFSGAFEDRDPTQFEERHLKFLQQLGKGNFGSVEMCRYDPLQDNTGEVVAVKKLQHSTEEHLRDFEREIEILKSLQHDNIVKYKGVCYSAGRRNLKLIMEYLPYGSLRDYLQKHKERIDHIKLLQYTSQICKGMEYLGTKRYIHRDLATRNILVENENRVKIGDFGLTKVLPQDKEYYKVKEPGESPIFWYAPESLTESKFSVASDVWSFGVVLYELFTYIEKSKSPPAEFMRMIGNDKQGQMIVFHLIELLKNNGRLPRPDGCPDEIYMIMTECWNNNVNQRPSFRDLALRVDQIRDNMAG
Procedure, shortened: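 TR-FRET read-out (Eu antibody donor, Ulight poly Glu-Tyr acceptor, 665/615 nm ratio) after a 60 min RT kinase reaction with ATP, begun following 30 min compound–enzyme preincubation. Stopped by EDTA; inhibition expressed as 100 minus % activity of positive control.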

[3] = tested on: RBL2H3 cells; test: Degranulation assay: β-hexosaminidase release during immune complex mediated degranulation; type: cell-based, rat; conditions: Rattus norvegicus, RBL-2H3, Assay Protocol B (96 well format); for inhibition at 1 µM: read-out: Degranulation % inhibition at 1 μM; for EC50: read-out: Degranulation EC50
Procedure, shortened: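 Fluorometric β-NAG read-out (Ex 355, Em 460 nm; 30 min, RT) of supernatant after DNP-BSA stimulation (45–60 min) of anti-DNP IgE-sensitized RBL2H3 cells. Compounds (0.5% DMSO) added 15 min before antigen; degranulation expressed as % β-hexosaminidase release or inhibition.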

Row | Structure (SMILES) | IC50 [1] | IC50 [2] | inhibition at 1 µM [3] | EC50 [3]
1 | O=C(O)CC1CCN(c2ccc(Nc3nc(N4CCCCCCC4)nc4cn[nH]c(=O)c34)cc2)CC1 [Example 88, 2-(1-(4-((2-(azocan-1-yl)-5-oxo-5,6-dihydropyrimido[4,5-d]pyridazin-4-yl)amino)phenyl)piperidin-4-yl)acetic acid] | < 10 nM | < 10 nM | 100% | 76 nM
2 | CC(C)(O)C1CCN(c2ccc(Nc3nc(N4CCC(CC#N)CC4)nc4cn[nH]c(=O)c34)cc2)CC1 [Example 146, 2-(1-(4-((4-(4-(2-hydroxypropan-2-yl)piperidin-1-yl)phenyl)amino)-5-oxo-5,6-dihydropyrimido[4,5-d]pyridazin-2-yl)piperidin-4-yl)acetonitrile] | < 10 nM | < 50 nM | 66% | 26 nM
3 | O=C(O)CN1CCCN(c2ccc(Nc3nc(N4CCCCC4)nc4cn[nH]c(=O)c34)cc2)CC1 [Example 154, 2-(4-(4-((5-oxo-2-(piperidin-1-yl)-5,6-dihydropyrimido[4,5-d]pyridazin-4-yl)amino)phenyl)-1,4-diazepan-1-yl)acetic acid] | < 50 nM | < 50 nM | 23% | 2320 nM
4 | O=c1[nH]ncc2nc(N3CCCCC3)nc(Nc3ccc(OCCN4CCC(O)CC4)cc3)c12 [Example 183, 4-((4-(2-(4-hydroxypiperidin-1-yl)ethoxy)phenyl)amino)-2-(piperidin-1-yl)pyrimido[4,5-d]pyridazin-5(6H)-one] | < 10 nM | < 50 nM | 41% | 83 nM
5 | O=C(O)CC1CCN(c2nc(Nc3ccc(CN4CCNCC4)cc3)c3c(=O)[nH]ncc3n2)CC1 [Example 43, 2-(1-(5-oxo-4-((4-(piperazin-1-ylmethyl)phenyl)amino)-5,6-dihydropyrimido[4,5-d]pyridazin-2-yl)piperidin-4-yl)acetic acid hydrochloride] | < 50 nM | < 100 nM | 13% | –
6 | O=C(O)CC1CCC(c2ccc(Nc3nc(N4CCCCCC4)nc4cn[nH]c(=O)c34)cc2)CC1 (centres unmarked) [Example 91, 2-(4-(4-((2-(azepan-1-yl)-5-oxo-5,6-dihydropyrimido[4,5-d]pyridazin-4-yl)amino)phenyl)cyclohexyl)acetic acid] | < 10 nM | < 50 nM | 100% | 154 nM
7 | CCN1CCN(c2ccc(Nc3nc(N4CCC(CC#N)CC4)nc4cn[nH]c(=O)c34)cc2)CC1=O [Example 178, 2-(1-(4-((4-(4-ethyl-3-oxopiperazin-1-yl)phenyl)amino)-5-oxo-5,6-dihydropyrimido[4,5-d]pyridazin-2-yl)piperidin-4-yl)acetonitrile] | < 10 nM | < 10 nM | 73% | 39 nM
8 | CC(C)(O)C(=O)N1CCN(c2ccc(Nc3nc(N4CCCCCC4)nc4cn[nH]c(=O)c34)cc2)CC1 [Example 214, 2-(azepan-1-yl)-4-((4-(4-(2-hydroxy-2-methylpropanoyl)piperazin-1-yl)phenyl)amino)pyrimido[4,5-d]pyridazin-5(6H)-one] | < 10 nM | < 10 nM | 78% | 19 nM
9 | O=c1[nH]ncc2nc(N3CCCCCC3)nc(Nc3ccc(N(CCO)CCO)cc3)c12 [Example 306, 2-(azepan-1-yl)-4-((4-(bis(2-hydroxyethyl)amino)phenyl)amino) pyrimido[4,5-d]pyridazin-5(6H)-one] | < 10 nM | < 10 nM | 100% | 15 nM
10 | N#CCC1CCN(c2nc(Nc3ccc(CCC(=O)O)cc3)c3c(=O)[nH]ncc3n2)CC1 [Example 305, 3-(4-((2-(4-(cyanomethyl)piperidin-1-yl)-5-oxo-5,6-dihydropyrimido[4,5-d]pyridazin-4-yl)amino)phenyl)propanoic acid] | < 10 nM | < 50 nM | 17% | 834 nM
11 | O=c1[nH]ncc2nc(-c3ccsc3)nc(Nc3ccc(CN4CCNCC4)cc3)c12 [Example 24, 4-(4-(piperazin-1-ylmethyl)phenylamino)-2-(thiophen-3-yl) pyrimido[4,5-d]pyridazin-5(6H)-one hydrochloride] | < 10 nM | < 100 nM | 83% | –
12 | N#CCC1CCN(c2nc(Nc3ccc(N4CCN(CC(=O)O)CC4)cc3)c3c(=O)[nH]ncc3n2)CC1 [Example 162, 2-(4-(4-((2-(4-(cyanomethyl)piperidin-1-yl)-5-oxo-5,6-dihydropyrimido[4,5-d]pyridazin-4-yl)amino)phenyl)piperazin-1-yl)acetic acid] | < 10 nM | < 10 nM | 27% | 281 nM
13 | O=c1[nH]ncc2nc(N3CCCCCC3)nc(Nc3ccc(N4CCCC(O)C4)nc3)c12 (centres unmarked) [Example 277, 2-(azepan-1-yl)-4-((6-(3-hydroxypiperidin-1-yl)pyridin-3-yl)amino)pyrimido[4,5-d]pyridazin-5(6H)-one] | < 10 nM | < 50 nM | 74% | 42 nM
14 | CCN1CCN(c2ccc(Nc3nc(N4CCCCCC4)nc4cn[nH]c(=O)c34)cc2)CC1=O [Example 175, 2-(azepan-1-yl)-4-((4-(4-ethyl-3-oxopiperazin-1-yl)phenyl)amino) pyrimido[4,5-d]pyridazin-5(6H)-one] | < 10 nM | < 10 nM | 98% | 6 nM
15 | O=c1[nH]ncc2nc(N3CCCCCC3)nc(Nc3ccc(CCCN4CCNCC4)cc3)c12 [Example 173, 2-(azepan-1-yl)-4-((4-(3-(piperazin-1-yl)propyl)phenyl)amino)pyrimido[4,5-d]pyridazin-5(6H)-one] | < 50 nM | < 50 nM | 66% | 29 nM
16 | O=c1[nH]ncc2nc(N3CCCCC3)nc(Nc3ccc(OCCN4CCNCC4)cc3)c12 [Example 153, 4-((4-(2-(piperazin-1-yl)ethoxy)phenyl)amino)-2-(piperidin-1-yl)pyrimido[4,5-d]pyridazin-5(6H)-one] | < 50 nM | < 100 nM | 47% | 324 nM
17 | CCN1CCN(c2ccc(Nc3nc(N4CCOCC4)nc4cn[nH]c(=O)c34)cc2)CC1 [Example 26, 4-(4-(4-ethylpiperazin-1-yl)phenylamino)-2-morpholinopyrimido[4,5-d]pyridazin-5(6H)-one] | < 10 nM | < 100 nM | 67% | –
18 | O=c1[nH]ncc2nc(N3CCCCCC3)nc(Nc3ccc(N4CCN(CCF)CC4)cc3)c12 [Example 275, 2-(azepan-1-yl)-4-((4-(4-(2-fluoroethyl)piperazin-1-yl)phenyl)amino) pyrimido[4,5-d]pyridazin-5(6H)-one] | < 10 nM | < 10 nM | 73% | 15 nM
19 | N#CCC1CCN(c2nc(Nc3ccc(N4CCNCC4)cc3)c3c(=O)[nH]ncc3n2)CC1 [Example 193, 2-(1-(5-oxo-4-((4-(piperazin-1-yl)phenyl)amino)-5,6-dihydropyrimido[4,5-d]pyridazin-2-yl)piperidin-4-yl)acetonitrile] | < 10 nM | < 10 nM | 93% | 17 nM
20 | O=C(O)C1CCN(CCOc2ccc(Nc3nc(N4CCCCCC4)nc4cn[nH]c(=O)c34)cc2)CC1 [Example 98, 1-(2-(4-((2-(azepan-1-yl)-5-oxo-5,6-dihydropyrimido[4,5-d]pyridazin-4-yl)amino)phenoxy)ethyl)piperidine-4-carboxylic acid] | < 50 nM | < 50 nM | 62% | 593 nM
21 | CN1CCN(CCOc2ccc(Nc3nc(N4CCCCCC4)nc4cn[nH]c(=O)c34)cc2)CC1 [Example 95, 2-(azepan-1-yl)-4-((4-(2-(4-methylpiperazin-1-yl)ethoxy)phenyl)amino)pyrimido[4,5-d]pyridazin-5(6H)-one] | < 50 nM | < 50 nM | 35% | –
22 | COC1CCN(c2ccc(Nc3nc(N4CCC(CC#N)CC4)nc4cn[nH]c(=O)c34)cc2)CC1 [Example 287, 2-(1-(4-((4-(4-methoxypiperidin-1-yl)phenyl)amino)-5-oxo-5,6-dihydropyrimido[4,5-d]pyridazin-2-yl)piperidin-4-yl)acetonitrile] | < 50 nM | < 50 nM | 97% | 20 nM
23 | O=C(O)CCCOc1ccc(Nc2nc(N3CCCCCC3)nc3cn[nH]c(=O)c23)cc1 [Example 92, 4-(4-((2-(azepan-1-yl)-5-oxo-5,6-dihydropyrimido[4,5-d]pyridazin-4-yl)amino)phenoxy)butanoic acid] | < 10 nM | < 50 nM | 100% | 111 nM
24 | O=c1[nH]ncc2nc(N3CCCCCC3)nc(Nc3ccc(CCN4CCN(CCO)CC4)cc3)c12 [Example 211, 2-(azepan-1-yl)-4-((4-(2-(4-(2-hydroxyethyl)piperazin-1-yl)ethyl)phenyl)amino)pyrimido[4,5-d]pyridazin-5(6H)-one] | < 50 nM | < 50 nM | 53% | 49 nM
